Measured values published in ChEMBL document CHEMBL3124933, “Optimization of brain penetrant 11β-hydroxysteroid dehydrogenase type I inhibitors and in vivo testing in diet-induced obese mice” (J Med Chem, 2014).

Assays:
[1] = Clearance in iv dosed Han Wistar rat; type: ADME, organism-based; details: in vivo
[2] = Ratio of total drug level in brain to blood in Han Wistar rat at 30 mg/kg, po measured at 1 hr by LC-MS/MS analysis; type: ADME, organism-based; set-up: dose 30 mg/kg, route oral; details: read-out: BBR
[3] = Oral bioavailability in Han Wistar rat; type: ADME, organism-based; details: in vivo
physchem = details: buffer, pH 7.4
[4] = Ratio of free drug level in brain to blood in diet-induced obese C57B6 mouse model at 4 to 40 mg/kg/day administered through diet for 21 days measured on day 24; type: ADME, organism-based; details: po
[5] = Oral bioavailability in Han Wistar rat at 7.4 umol/kg; type: ADME, organism-based; details: in vivo
[6] = Volume of distribution at steady state in Han Wistar rat at 5.2 umol/kg, iv; type: ADME, organism-based; details: in vivo, read-out: Vdss
[7] = Clearance in Han Wistar rat at 5.2 umol/kg, iv; type: ADME, organism-based; details: in vivo
[8] = AUC in C57B6 mouse at 17.6 umol/kg, po; type: ADME, organism-based, Plasma; details: whole blood
[9] = Clearance in C57B6 mouse at 3.5 umol/kg, iv; type: ADME, organism-based; details: in vivo
[10] = Volume of distribution at steady state in C57B6 mouse at 3.5 umol/kg, iv; type: ADME, organism-based; details: in vivo, read-out: Vdss
[11] = Ratio of free drug level in brain to blood in Han Wistar rat at 30 mg/kg, po measured at 1 hr by LC-MS/MS analysis; type: ADME, organism-based; set-up: dose 30 mg/kg, route oral
[12] = Oral bioavailability in C57B6 mouse at 17.6 umol/kg; type: ADME, organism-based; details: in vivo
[13] = AUC in Han Wistar rat whole blood at 7.4 umol/kg, po
[14] = Ratio of free drug level in brain to blood in diet-induced obese C57B6 mouse model at 20 mg/kg administered through diet for 21 days measured on day 24; type: ADME, organism-based; set-up: dose 20 mg/kg; details: po
[15] = Oral bioavailability in Han Wistar rat at 12.3 umol/kg; type: ADME, organism-based; details: in vivo
[16] = AUC in Han Wistar rat at 12.3 umol/kg, po; type: ADME, organism-based, Plasma; details: whole blood
[17] = Volume of distribution at steady state in Han Wistar rat at 3.1 umol/kg, iv; type: ADME, organism-based; details: in vivo, read-out: Vdss
[18] = Clearance in Han Wistar rat at 3.1 umol/kg, iv; type: ADME, organism-based; details: in vivo
[19] = Oral bioavailability in C57B6 mouse at 14.3 umol/kg; type: ADME, organism-based; details: in vivo
[20] = AUC in C57B6 mouse at 14.3 umol/kg, po; type: ADME, organism-based, Plasma; details: whole blood
[21] = Clearance in C57B6 mouse at 4 umol/kg, iv; type: ADME, organism-based; details: in vivo
[22] = Volume of distribution at steady state in C57B6 mouse at 4 umol/kg, iv; type: ADME, organism-based; details: in vivo, read-out: Vdss
[23] = Apparent permeability from apical to basolateral side in MDCK cells; type: ADME, cell-based, Canis lupus familiaris; details: dog

| Structure (SMILES) | Kp at 1 h [2] | bioavailability [3] | logD (physchem) | further results |
| --- | --- | --- | --- | --- |
| Cc1nc(C2CC2)c(C(=O)N[C@H]2C3CC4CC2C[C@](O)(C4)C3)s1 | 1.6 | 12% | 1.9 | clearance [1]: 14 mL/min/kg |
| Cc1nc([C@H]2CCCO2)c(C(=O)N[C@H]2C3CC4CC2C[C@](O)(C4)C3)s1 | 1.5 | 11% | 1.8 | clearance [1]: 17 mL/min/kg |
| COc1nc(C)sc1C(=O)N[C@H]1C2CC3CC1C[C@](O)(C3)C2 | 1.2 | 23% | 2 | clearance [1]: 22 mL/min/kg |
| Nc1nc([C@H]2CCCO2)c(C(=O)N[C@H]2C3CC4CC2C[C@](O)(C4)C3)s1 |  |  | 1.7 |  |
| O=C(N[C@H]1C2CC3CC1C[C@](O)(C3)C2)c1sc(OC2CCOCC2)nc1[C@H]1CCCO1 | 1.1 |  | 2.6 | Kp uu at 504 h [4]: 0.5; bioavailability [5]: 83%; Vd [6]: 1 L/kg; clearance [7]: 34 mL/min/kg; AUC [8]: 20.6 µM·h; clearance [9]: 26 mL/min/kg; Vd [10]: 1.7 L/kg; Kp uu at 1 h [11]: 0.9; bioavailability [12]: 139%; AUC [13]: 3.9 µM·h |
| N#CC1(COc2nc(C3CC3)c(C(=O)N[C@H]3C4CC5CC3C[C@](O)(C5)C4)s2)CC1 | 0.4 |  | 2.6 | Kp uu at 504 h [14]: 0.2; bioavailability [15]: 79%; AUC [16]: 7.9 µM·h; Vd [17]: 0.6 L/kg; clearance [18]: 16 mL/min/kg; bioavailability [19]: 73%; AUC [20]: 12 µM·h; clearance [21]: 18 mL/min/kg; Kp uu at 1 h [11]: 0.4; Vd [22]: 1 L/kg |
| O=C(N[C@H]1C2CC3CC1C[C@](O)(C3)C2)c1sc(O[C@@H]2CCCO2)nc1C1CC1 |  |  | 2.4 |  |
| O=C(N[C@H]1C2CC3CC1C[C@](O)(C3)C2)c1cncs1 |  |  | 0.8 |  |
| CCc1nc([C@H]2CCCO2)c(C(=O)N[C@H]2C3CC4CC2C[C@](O)(C4)C3)s1 |  |  | 2.4 |  |
| CN(C)c1nc([C@H]2CCCO2)c(C(=O)N[C@H]2C3CC4CC2C[C@](O)(C4)C3)s1 |  |  | 2.7 |  |
| COCCOc1nc([C@H]2CCCO2)c(C(=O)NC2C3CC4CC2CC(O)(C4)C3)s1 (stereo partly specified) | 0.8 | 24% | 2.1 | clearance [1]: 8 mL/min/kg |
| COCCc1nc([C@H]2CCCO2)c(C(=O)N[C@H]2C3CC4CC2C[C@](O)(C4)C3)s1 |  |  | 1.8 |  |
| O=C(NC1C2CC3CC1CC(O)(C3)C2)c1scnc1[C@H]1CCCO1 (stereo partly specified) |  | 0% | 1.6 | clearance [1]: 52 mL/min/kg |
| COc1ncsc1C(=O)NC1C2CC3CC1CC(O)(C3)C2 (stereo unspecified) |  |  | 1.7 |  |
| CCOc1nc(C2CC2)c(C(=O)N[C@H]2C3CC4CC2C[C@](O)(C4)C3)s1 |  |  | 2.9 |  |
| C[C@@H]1CN(c2ncc(C(=O)NC3C4CC5CC3CC(O)(C5)C4)c([C@H]3CCCO3)n2)C[C@H](C)O1 (stereo partly specified) | 0.3 | 35% | 2.3 | Papp A→B [23]: 23 ×10⁻⁶ cm/s |
| O=C(N[C@H]1C2CC3CC1C[C@](O)(C3)C2)c1sc(OCCO)nc1C1CC1 | 0.2 | 25% | 1.6 | clearance [1]: 5 mL/min/kg |
| COc1c(C(=O)NC2C3CC4CC2CC(O)(C4)C3)cnn1C (stereo unspecified) | 0.1 | 27% | 0.4 |  |
| COCCOc1nc(C2CC2)c(C(=O)N[C@H]2C3CC4CC2C[C@](O)(C4)C3)s1 | 1.2 | 23% |  | clearance [1]: 27 mL/min/kg |
| Cc1nc(OC2CCC2)c(C(=O)NC2C3CC4CC2CC(O)(C4)C3)s1 (stereo unspecified) |  |  | 3.2 |  |
| CC(C)Oc1nc(C2CC2)c(C(=O)N[C@H]2C3CC4CC2C[C@](O)(C4)C3)s1 |  |  | 3.4 |  |

| Structure (SMILES) | Kp at 1 h [2] | bioavailability [3] | logD (physchem) | further results |
| --- | --- | --- | --- | --- |
| CCCSc1nc(C)sc1C(=O)N[C@H]1C2CC3CC1C[C@](O)(C3)C2 |  |  | 3.1 |  |
| C[C@@H]1CN(c2ncc(C(=O)NC3C4CC5CC3CC(O)(C5)C4)c(C3CCCC3)n2)C[C@H](C)O1 (stereo partly specified) |  | 70% | 3.6 | Papp A→B [23]: 20 ×10⁻⁶ cm/s |
| O=C(NC1C2CC3CC1CC(O)(C3)C2)c1cnc(N[C@H]2CCOC2)nc1C1CCCC1 (stereo partly specified) |  | 64% |  | Papp A→B [23]: 3 ×10⁻⁶ cm/s |
| COC[C@H](C)Oc1nc(C2CC2)c(C(=O)N[C@H]2C3CC4CC2C[C@](O)(C4)C3)s1 |  |  | 2.8 |  |
| Cc1nc(C(F)(F)F)c(C(=O)N[C@H]2C3CC4CC2C[C@](O)(C4)C3)s1 |  |  | 1.5 |  |
| CS(=O)(=O)Cc1nc([C@H]2CCCO2)c(C(=O)NC2C3CC4CC2CC(O)(C4)C3)s1 (stereo partly specified) | < 0.05 | 65% | 0.4 | clearance [1]: 17 mL/min/kg |
| CNc1nc([C@H]2CCCO2)c(C(=O)N[C@H]2C3CC4CC2C[C@](O)(C4)C3)s1 |  |  | 2.1 |  |
| O=C(N[C@H]1C2CC3CC1C[C@](O)(C3)C2)c1sc(OCC2CC2)nc1C1CC1 |  |  | 3.6 |  |
| COCc1nc([C@H]2CCCO2)c(C(=O)N[C@H]2C3CC4CC2C[C@](O)(C4)C3)s1 |  |  | 1.9 |  |
| N#CC1CC(Oc2nc([C@H]3CCCO3)c(C(=O)NC3C4CC5CC3CC(O)(C5)C4)s2)C1 (stereo partly specified) |  |  | 2.4 |  |
| COc1nc([C@H]2CCCO2)c(C(=O)N[C@H]2C3CC4CC2C[C@](O)(C4)C3)s1 | 1.1 | 40% | 2.3 | clearance [1]: 21 mL/min/kg |
| O=C(N[C@H]1C2CC3CC1C[C@](O)(C3)C2)c1sc(OC2CCOCC2)nc1C1CC1 | 1.2 | 53% | 2.7 | clearance [1]: 21 mL/min/kg |
| Cc1nc([C@@H]2CCCO2)c(C(=O)N[C@H]2C3CC4CC2C[C@](O)(C4)C3)s1 |  |  | 1.8 |  |
| Cc1nc(OC2COC2)c(C(=O)N[C@H]2C3CC4CC2C[C@](O)(C4)C3)s1 |  |  | 1.5 |  |
| Cc1nc(OC(C)C)c(C(=O)N[C@H]2C3CC4CC2C[C@](O)(C4)C3)s1 |  |  | 3 |  |
| Cc1nc(OCC(F)(F)F)c(C(=O)N[C@H]2C3CC4CC2C[C@](O)(C4)C3)s1 |  |  | 3.1 |  |
| COC[C@H](C)Oc1nc([C@H]2CCCO2)c(C(=O)NC2C3CC4CC2CC(O)(C4)C3)s1 (stereo partly specified) | 0.9 | 16% | 2.8 | clearance [1]: 13 mL/min/kg |
| COc1nc(C2CC2)c(C(=O)N[C@H]2C3CC4CC2C[C@](O)(C4)C3)s1 | 1.8 | 45% | 2.6 | clearance [1]: 15 mL/min/kg |
| COC[C@@H](C)Oc1nc(C2CC2)c(C(=O)N[C@H]2C3CC4CC2C[C@](O)(C4)C3)s1 |  |  | 2.6 |  |
| CCOc1nc(C)sc1C(=O)N[C@H]1C2CC3CC1C[C@](O)(C3)C2 |  |  | 2.6 |  |
| Cc1nc(C)c(C(=O)N[C@H]2C3CC4CC2C[C@](O)(C4)C3)s1 |  |  | 1.3 |  |
